The record followed here is ChEMBL document CHEMBL3507680, “University of Dundee, Gates Library screen for HepG2 cell viability”.

Molecules are shown by their SMILES.

The nature of the data set: Human HepG2 cell viability assay in 384 well format. The settings on record: HepG2 cells, read-out: Inhibition. The class given is toxicity, cell-based. Further details: dose 125 nL, time 70.5 hour; cytotoxicity at 70.5 h: concentration not given beside the values.
In the case of `O=C1NC2(CCN(C(=O)c3ccc(Cl)cc3)CC2)CC1c1ccccc1` (stereo not drawn), the cytotoxicity at 70.5 h amounted to 20.8%. As to `CN(c1ncccc1C#N)C1CCN(Cc2ccncc2)CC1`, the cytotoxicity at 70.5 h is -3.31%. The figure for `COc1ccc(N2CCN(CC(O)c3ccc(C)cc3C)CC2)cc1` (stereo not drawn) is -3.49%; for `Cc1cc(CN2CCN(C(=O)CCCc3nc(C(C)C)no3)CC2)on1` it is -8.77%. The figure for `Cn1ccnc1CN1CCCN(C(=O)CC(C2CC2)C2CC2)CC1` is 0.914%; for `CCn1cc(CN2CCCN(C(=O)c3ccc(C#N)cc3)CC2)cn1` it is -4.62%. As for `CNS(=O)(=O)Cc1ccc(CNC(=O)c2ccc(C)[nH]c2=O)cc1`, the cytotoxicity at 70.5 h was -9.88%. The figure for `Cc1cc(C(=O)NS(C)(=O)=O)ccc1I` is -4.1%; for `CC(NC1(CNS(=O)(=O)N(C)C)CCCC1)c1ccccc1` (stereo not drawn) it is -13.2%.

For the molecule `CN(C)C(=O)N1Cc2ccccc2C2(CCNCC2)C1`, the cytotoxicity at 70.5 h was found to be 28.5%. The figure for `COCC(=O)N1CCC(Cc2nccnc2-c2c(C)n[nH]c2C)C1` (stereo not drawn) is 12.4%. The figure for `O=C(NC1CCCC1)c1nc2c(o1)CN(CCO)C2` is -0.956%; for `Fc1ccccc1CN(CCCn1ccnc1)CC1CCOC1` (stereo not drawn) it is 9.07%. Take `Cc1cc(C(=O)O)ccc1NS(=O)(=O)c1c(C)nn(C(C)C)c1C`: the cytotoxicity at 70.5 h is -5.01%. Take `COC(=O)c1sc2cccc(F)c2c1CNC(=O)C1CCCO1` (stereo not drawn): the cytotoxicity at 70.5 h was determined as 6.87%. As for `CC(C)(C)Nc1nc(-c2cccnc2)c(-c2ccnc(NCCO)n2)s1`, the cytotoxicity at 70.5 h is -9.49%.

Regarding `CC1CCCN(c2ccccc2OCC(=O)NC2CCOCC2)C1` (stereo not drawn), the cytotoxicity at 70.5 h worked out at 28.3%. For the molecule `CCCC(C)(C)NC(=O)CCN1CCOC1=O`, the cytotoxicity at 70.5 h came out at 0.72%.

As to `Cc1cc(C(=O)NCCN2CCCCCC2)nn1C(C)(C)C`, the cytotoxicity at 70.5 h is -4.89%. The figure for `O=C1O[C@@H]2CN(c3ncccn3)C[C@@H]2N1CCCc1ccc(F)cc1` is -7.46%; for `CSc1ncn(-c2nc(NC3CC3)nc(N(C)C)n2)n1` it is -25.9%; for `CCOCCN(CCOCC)c1nc(C)nc2sccc12` it is -0.429%.

`COc1cccc(NC(=O)CN(C(C)C)C2CC2)c1`: the cytotoxicity at 70.5 h is -2.69%. As for `Cc1c(C)n(CC(O)CN2CCOCC2)c2c(Cl)cccc12` (stereo not drawn), the cytotoxicity at 70.5 h is 11.2%. As to `O=C(Cc1c(F)cccc1Cl)Nc1cc(N2CCCC2)ncn1`, the cytotoxicity at 70.5 h is -2.78%. Turning to `O=C(O)c1c(-c2ccncc2)ncc2c1CCN(C1CCOC1)C2` (stereo not drawn), the cytotoxicity at 70.5 h is -9.17%. Consider `CCOCCN1CCN(Cc2coc(-c3cccc(F)c3)n2)CC1`, for which the cytotoxicity at 70.5 h is -1.54%. `c1ccc(C2CN(C3CC3)CC3(CCN(Cc4ncc[nH]4)CC3)C2)cc1` (stereo not drawn): the cytotoxicity at 70.5 h was -6.48%.

`Cc1cc(CN2C[C@@H]3CCCO[C@@H]3[C@H](NS(C)(=O)=O)C2)no1`: the cytotoxicity at 70.5 h was -1.78%. As to `Cc1ccc(C(=O)N2CCC3(CC2)COCCN(S(C)(=O)=O)C3)cc1C`, the cytotoxicity at 70.5 h was -6.37%. Consider `Cc1nn(C2CCS(=O)(=O)C2)c(O)c1Cc1ccccc1` (stereo not drawn), for which the cytotoxicity at 70.5 h was -16.5%. The figure for `Cc1nnc(CN2CCCC2c2ccc(Cl)c(Cl)c2)o1` (stereo not drawn) is -1.84%; for `O=S(=O)(Nc1cnc(N2CCOCC2)nc1)c1ccc(C(F)(F)F)cc1` it is 2.45%; for `Cc1nc(C#N)c(N2CCC(c3nc(-c4ccc(F)cc4)no3)CC2)o1` it is 28.5%. The figure for `COCc1nc(N(C)CCSc2ccccc2)c2cnn(C)c2n1` is -5.78%; for `Cc1ccc2c(n1)N(CC1CC1)CCN(Cc1cnn(C)c1)C2` it is 30.4%. `CCC(=O)NC1CCCN(C(=O)Nc2cccc(COC(C)C)c2)C1` (stereo not drawn): the cytotoxicity at 70.5 h came out at 7.06%. The figure for `Cc1nc(CN2CCCC(NCCOc3ccccc3)C2)no1` (stereo not drawn) is -5.84%; for `CN(C)S(=O)(=O)N1CC[C@]2(O)CCN(c3nc4ccccc4s3)C[C@@H]2C1` it is 3.99%.

In the case of `Cc1cnn(CC2CCCN2C(=O)c2sccc2C#N)c1` (stereo not drawn), the cytotoxicity at 70.5 h is -2.76%.

As for `Cc1cc(CNC(=O)Cc2c(C)nc3cc(=O)[nH]n3c2C)no1`, the cytotoxicity at 70.5 h was -4.77%.

For the molecule `Cc1n[nH]c(C)c1Sc1ccccc1NC(=O)N1CCOCC(O)C1` (stereo not drawn), the cytotoxicity at 70.5 h was determined as 2.32%. Consider `O=C(c1ccc[nH]1)N1CCc2onc(COc3cccnc3)c2C1`, for which the cytotoxicity at 70.5 h is -4.03%. As to `Cc1ccc(N(CC(=O)c2ccc(Br)cc2)C2=NCCCCC2)cc1`, the cytotoxicity at 70.5 h came out at 16.7%.

For `Cc1nc([C@H]2C[C@@H]3CCN(Cc4ccc5c(c4)OCO5)C[C@H]3O2)no1`, the cytotoxicity at 70.5 h was -12.3%.

For the molecule `CCc1nc(CN2CCOC(CNc3cccnn3)C2)cs1` (stereo not drawn), the cytotoxicity at 70.5 h turned out to be 10.3%.

In the case of `Cc1ccc(N2CCC3(CCN(Cc4ccccn4)CC3)CC2)nn1`, the cytotoxicity at 70.5 h was -11.7%. The figure for `Cc1ccc(S(=O)(=O)N2CCN(C)C3(CCC(=O)N(C)CC3)C2)s1` (stereo not drawn) is -5.58%. In the case of `CN(Cc1ccccc1F)C(=O)Cn1cc(NC(=O)C(C)(C)C)cn1`, the cytotoxicity at 70.5 h was found to be 10.7%. The figure for `CN1CCOCC2(CCCN(C(=O)c3ccccc3F)C2)C1` (stereo not drawn) is 13.4%; for `CC(=O)N1CCCN(C(C(=O)O)c2ccc(C)cc2C)CC1` (stereo not drawn) it is -10.9%.

In the case of `CCC[C@@H]1CN(c2ncnc3sccc23)C[C@H]1C(=O)O`, the cytotoxicity at 70.5 h is -5.95%. `Cc1cc(C(=O)N2CCc3nnc(N)cc3C2)c(C)n1-c1cccnc1`: the cytotoxicity at 70.5 h was -1.23%. The figure for `COc1ncc(-c2ccc(C(N)=O)cc2)c(OC)n1` is -8.59%; for `Nc1ccnc(CNc2cc(F)ccc2OCC2CCCO2)n1` (stereo not drawn) it is -9.07%; for `COCCC1(CNC(=O)NCC2CCC2)CCC1` it is -0.0221%.

Turning to `CC(C)C[C@@H](CO)n1cc(-c2cnc(-c3ccco3)nc2)nn1`, the cytotoxicity at 70.5 h is -6.45%.

As for `O=C1C(Nc2ncccn2)CCN1c1ccccc1OC(F)F` (stereo not drawn), the cytotoxicity at 70.5 h is 1.42%. The figure for `CCC(=O)N1CSCC1C(=O)N(C)CCc1ccccc1` (stereo not drawn) is 7.14%; for `O=C(O)c1c[nH]c2cc(NS(=O)(=O)c3ccc(Cl)cc3F)ccc12` it is -5.42%. On to `COc1cccc(Cn2cccc(C#N)c2=O)c1`, for which the cytotoxicity at 70.5 h was -7%. The figure for `Cc1ccc(CN2CC[C@H]3[C@H]2CCN3S(=O)(=O)C2CC2)cc1` is -6.33%.

With `Cn1nc(C(=O)NCc2ccccc2C(F)(F)F)c2c1CCS(=O)(=O)C2`, the cytotoxicity at 70.5 h is -5.12%. The figure for `O=C(c1ccco1)N1CCOCC2(CCN(C3CCOCC3)C2)C1` (stereo not drawn) is -8.45%.

Consider `O=C(CCN1CCCC1)Nc1c2c(cc3c1CCC3)CCC2`, for which the cytotoxicity at 70.5 h is -0.353%.

Take `CN1CC(=O)N(c2cccc(F)c2)CC12CCN(Cc1cnn(C)c1)C2` (stereo not drawn): the cytotoxicity at 70.5 h was 4.08%. On to `Cc1nccn1-c1cc(CNC(=O)c2ccccn2)ccn1`, for which the cytotoxicity at 70.5 h was -4.56%. The figure for `N#Cc1ccccc1CN1CCC(c2nccn2CC(N)=O)CC1` is -4.95%; for `Cc1cc(C)n(CC2CCCN2C(=O)Cc2csc(C)n2)n1` (stereo not drawn) it is -1.11%; for `Cc1nn(C)c(C)c1C(C)NC(=O)Nc1cccnc1N1CCCC1` (stereo not drawn) it is -15.8%. The figure for `CC(=O)c1cc(C(=O)N2Cc3ccccc3OC3(CCOCC3)C2)cs1` is 6.07%; for `CCc1noc(CN2CCCC2C(=O)OCc2ccccc2)n1` (stereo not drawn) it is -16.5%; for `COCCc1noc(CN(C)C(=O)c2cccc(N3CCCC3=O)c2)n1` it is -17%. Take `CCc1ccccc1OC1CN(C(=O)c2sccc2N)C1`: the cytotoxicity at 70.5 h was -3.46%. As for `CCn1cnnc1CNC(=O)N1CCN(c2ccccc2OC)CC1`, the cytotoxicity at 70.5 h is -9.83%. `NC(=O)C1CCN(c2nccc(-c3c[nH]nc3C3CCCCC3)n2)CC1`: the cytotoxicity at 70.5 h was -4.42%.

Consider `CC(C(=O)Nc1cccc(Cl)c1SC(F)F)S(C)(=O)=O` (stereo not drawn), for which the cytotoxicity at 70.5 h was -3.11%.

For the molecule `c1ccc(-c2nnc3ccc(N4CCC5(CCOC5)C4)nn23)cc1` (stereo not drawn), the cytotoxicity at 70.5 h was 5.72%. Turning to `Cc1nc(NCc2ccco2)nc2c1COCC21CCNC1` (stereo not drawn), the cytotoxicity at 70.5 h was -8.24%. Take `O=C(NC[C@]1(O)CCN(Cc2ccccc2F)C[C@H]1O)c1c[nH]cn1`: the cytotoxicity at 70.5 h is -0.237%. Regarding `CC(NCCCn1cccn1)c1ccc(N2CCCS2(=O)=O)cc1` (stereo not drawn), the cytotoxicity at 70.5 h is -4.88%. In the case of `NC(=O)c1cccnc1N1CCN(c2ncnc3c2CCNC3)CC1`, the cytotoxicity at 70.5 h is -1.91%. The figure for `Cc1nn(C)cc1-c1cncn1CCN(C)C1CCCC1` is -5%; for `Cn1cc(S(=O)(=O)N(CC(F)(F)F)C2CC2)cc1C(N)=O` it is -4.65%; for `O=C(c1cccc(N2CCCC2=O)c1)N1CCCC(n2cncn2)C1` (stereo not drawn) it is -8.04%. `Cc1cccc(C)c1OCCNC(=O)C(C)n1cncn1` (stereo not drawn): the cytotoxicity at 70.5 h was -11.4%. For `Cc1nc(N2CCCC2)ncc1-c1cc(O)nc(N2CCCCC2)n1`, the cytotoxicity at 70.5 h is -10.4%. Consider `COc1ccc(C(NC(=O)NCc2nnc3n2CCC3)C2CC2)cc1` (stereo not drawn), for which the cytotoxicity at 70.5 h is 14.3%. The figure for `O[C@H]1CCCC[C@@H]1N1CCN(CCCc2ccc3c(c2)OCO3)CC1` is -6.44%; for `O=C(NCC1(O)CCSC1)c1ccn(-c2ccccc2F)n1` (stereo not drawn) it is -15.6%. The figure for `N#Cc1cccc(OCCN2CCOC(Cn3cccn3)C2)c1` (stereo not drawn) is -3.46%; for `Cc1ccc(N2CCCC(c3[nH]ncc3-c3ccccc3)C2)nn1` (stereo not drawn) it is -8.56%. The figure for `Cc1ccc(NC2CCN(C(=O)c3ccc(C(N)=O)s3)CC2)nn1` is -5.83%. For the molecule `Cn1c(=O)ccn(CC(=O)Nc2cnccc2O)c1=O`, the cytotoxicity at 70.5 h is -4.1%. The figure for `CCNC(=O)c1ccc(NC(=O)N(C)Cc2cc(C)on2)c(C)c1` is -5.12%; for `CNC(=O)[C@@H](CC(C)C)N1CCC[C@H]1C(=O)N(C)Cc1cccnc1` it is -6.49%. For `CN(Cc1c(F)cccc1Cl)C(=O)Nc1cnn(CC(N)=O)c1`, the cytotoxicity at 70.5 h amounted to 6.9%. The figure for `COc1ccc(-c2csc(-c3cccc(C(=O)O)c3)n2)cc1OC` is -9.98%.
